From patent US9409866B2, “Pyridine-2-amides useful as CB2 agonists” (Hoffmann-La Roche Inc., priority 2012, dated 2016)
pEC50: −log10 of the molar value.

Tests used:
[1] = target: human CB2 receptors (Homo sapiens (Human), UniProt P34972); test: functional cAMP assay, CHO cells expressing human CB2; type: cell-based; conditions: read-out: Human CB2 EC50
Outline: (§1)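 CHO-hCB1/hCB2 cells, KRB + 1 mM IBMX preincubation 30 min 30 °C; cpd 30 min 30 °C; lysis + TR-FRET cAMP detection, 2 h RT; cAMP from std curve; EC50.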

[2] = target: human CB1 receptors (Homo sapiens (Human), UniProt P21554); test: functional cAMP assay, CHO cells expressing human CB1; type: cell-based; conditions: functional cAMP assay, CHO cells expressing human CB1; read-out: Human CB1 EC50
Outline: as §1

human CB2 receptors, sequence (P34972 whole entry): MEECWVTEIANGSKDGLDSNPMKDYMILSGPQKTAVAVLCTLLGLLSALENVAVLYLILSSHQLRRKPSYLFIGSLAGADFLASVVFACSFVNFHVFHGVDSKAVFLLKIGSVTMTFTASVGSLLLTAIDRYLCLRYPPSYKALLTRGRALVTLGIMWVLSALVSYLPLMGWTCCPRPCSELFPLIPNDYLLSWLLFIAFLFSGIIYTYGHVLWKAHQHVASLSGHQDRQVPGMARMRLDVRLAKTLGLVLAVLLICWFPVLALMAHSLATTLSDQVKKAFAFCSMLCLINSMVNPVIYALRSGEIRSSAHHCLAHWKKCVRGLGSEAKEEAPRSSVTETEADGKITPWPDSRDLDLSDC
human CB1 receptors, sequence (P21554 whole entry): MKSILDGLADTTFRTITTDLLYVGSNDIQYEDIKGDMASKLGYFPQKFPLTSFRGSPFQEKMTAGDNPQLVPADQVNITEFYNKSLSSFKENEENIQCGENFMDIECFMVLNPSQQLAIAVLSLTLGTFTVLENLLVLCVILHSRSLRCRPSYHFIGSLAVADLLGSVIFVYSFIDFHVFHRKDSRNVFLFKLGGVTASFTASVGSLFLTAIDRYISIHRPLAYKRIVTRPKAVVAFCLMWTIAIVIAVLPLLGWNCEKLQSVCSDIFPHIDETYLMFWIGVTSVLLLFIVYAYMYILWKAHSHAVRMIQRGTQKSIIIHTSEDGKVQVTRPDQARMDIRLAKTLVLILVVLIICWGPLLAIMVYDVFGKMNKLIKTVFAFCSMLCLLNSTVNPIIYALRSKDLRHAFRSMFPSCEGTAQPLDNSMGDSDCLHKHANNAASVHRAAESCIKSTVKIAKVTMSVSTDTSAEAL

Structure (SMILES) | pEC50 [1] | pEC50 [2]
NC(=O)CC1(NC(=O)c2cc(OCCF)c(C3CC3)cn2)CS(=O)(=O)C1 [Example 281, N-[3-(2-amino-2-oxoethyl)-1,1-dioxothietan-3-yl]-5-cyclopropyl-4-(2-fluoroethoxy)pyridine-2-carboxamide] | 7.64 | < 5.00
CNC(=O)CC1(NC(=O)c2cc(OCC(F)(F)F)c(C3CC3)cn2)CS(=O)(=O)C1 [Example 282, 5-cyclopropyl-N-[3-[2-(methylamino)-2-oxoethyl]-1,1-dioxothietan-3-yl]-4-(2,2,2-trifluoroethoxy)pyridine-2-carboxamide] | 6.18 | < 5.00
CNC(=O)CC1(NC(=O)c2cc(OCC(F)(F)F)c(C3(F)CCC3)cn2)CS(=O)(=O)C1 [Example 285, 5-(1-fluorocyclobutyl)-N-[3-[2-(methylamino)-2-oxoethyl]-1,1-dioxothietan-3-yl]-4-(2,2,2-trifluoroethoxy)pyridine-2-carboxamide] | 5.84 | < 5.00
NC(=O)CC1(NC(=O)c2cc(OCC(F)(F)F)c(C3(F)CCC3)cn2)CS(=O)(=O)C1 [Example 286, N-[3-(2-amino-2-oxoethyl)-1,1-dioxothietan-3-yl]-5-(1-fluorocyclobutyl)-4-(2,2,2-trifluoroethoxy)pyridine-2-carboxamide] | 7.34 | < 5.00
CC(CF)Oc1cc(C(=O)NC(C)(CC(N)=O)C2CC2)ncc1C1CC1 (centres unmarked) [Example 293, N-(4-amino-2-cyclopropyl-4-oxobutan-2-yl)-5-cyclopropyl-4-(1-fluoropropan-2-yloxy)picolinamide] | 8.89 | < 5.00
CC(CF)Oc1cc(C(=O)NC(C)(CC(N)=O)C2CC2)ncc1C1CC1 (centres unmarked) [Example 294, N-(4-amino-2-cyclopropyl-4-oxobutan-2-yl)-5-cyclopropyl-4-(1-fluoropropan-2-yloxy)picolinamide] | 9.22 | < 5.00
NC(=O)CC1(NC(=O)c2cc(OCC(F)(F)F)c(C3CCC3)cn2)CS(=O)(=O)C1 [Example 299, N-[3-(2-amino-2-oxoethyl)-1,1-dioxothietan-3-yl]-5-cyclobutyl-4-(2,2,2-trifluoroethoxy)pyridine-2-carboxamide] | 8.70 | < 5.00
CC(CC(N)=O)(NC(=O)c1cc(OCC(F)(F)F)c(C2(F)CCC2)cn1)C1CC1 (centres unmarked) [Example 300, N-(4-amino-2-cyclopropyl-4-oxobutan-2-yl)-5-(1-fluorocyclobutyl)-4-(2,2,2-trifluoroethoxy)picolinamide] | 8.17 | < 5.00
C[C@H](Oc1cc(C(=O)NC2(CC(N)=O)CS(=O)(=O)C2)ncc1C1(F)CCC1)C(F)(F)F [Example 305, N-[3-(2-amino-2-oxoethyl)-1,1-dioxothietan-3-yl]-5-(1-fluorocyclobutyl)-4-[(2S)-1,1,1-trifluoropropan-2-yl]oxypyridine-2-carboxamide] | 8.29 | < 5.00
NC(=O)CC1(NC(=O)c2cc(OCC(F)F)c(C3(F)CCC3)cn2)CS(=O)(=O)C1 [Example 308, N-[3-(2-amino-2-oxoethyl)-1,1-dioxothietan-3-yl]-4-(2,2-difluoroethoxy)-5-(1-fluorocyclobutyl)pyridine-2-carboxamide] | 7.14 | < 5.00
